Laboratory results published in paper PMC12384515 (2023).

Legend:
Test in all cases: fluorescent intercalator displacement
Details in all cases: ethidium bromide (5 μM) displaced; DNA 10 μM/bp; per base
[1] = test system: G5C5 (DNA, duplex) AAAGGGGGCCCCCTTT
[2] = test system: A5T5 (DNA, duplex) GGGAAAAATTTTTCCC
[3] = test system: (AT)5 (DNA, duplex) GGGATATATATATCCC

Row | Structure (SMILES) | C50 [1] [µM] | C50 [2] [µM] | C50 [3] [µM]
1 | CN(C)c1ccc([C+](c2ccc(N(C)C)c(-c3ccccc3)c2)c2ccc(N(C)C)c(-c3ccccc3)c2)cc1-c1ccccc1 | 3.36 ± 0.07 | 3.13 ± 0.01 | 
2 | CC1=CC(=[N+](C)C)C=CC1=C(c1ccc(N(C)C)cc1C)c1ccc(N(C)C)cc1C | 7.21 ± 0.63 | 2.40 ± 0.02 | 2.30 ± 0.03
3 | CN(C)c1ccc([C+](c2ccc(N(C)C)cc2)c2ccc(N(C)C)c(-c3ccccc3)c2)cc1 |  |  | 2.75 ± 0.21
4 | CN(C)c1ccc([C+](c2ccc(N(C)C)cc2)c2ccc3cc(N(C)C)ccc3c2)cc1 | 0.88 ± 0.01 | 0.52 ± 0.01 | 0.32 ± 0.02
